In brackets after ≈: the same amount, converted by molar mass. Where two headings read alike, the source gives them in different places. Where a SMILES comes first, the peptide text is derived from it. The star is where a group is joined. pNA = O=[N+]([O-])c1ccc(N*)cc1; Bz = O=C(c1ccccc1)*
What was measured:
thrombin = experiment: Relative reaction velocity between thrombin and chromogenic substrate (p-nitroaniline release, 405 nm); type: biochemical; details: for Rel. reaction velocity: thrombin 0.4 NIH/ml, substrate 0.1 μmol/ml, relative, S-2160 = 100
From the text: The substrates prepared according to the examples are used for determination of thrombin as stated below.
The determination principle is based upon the fact that the splitting product formed by enzymatic hydrolysis has a UV-spectrum which is essentially different from that of the substrate. Thus, the substrate according to Example X, H--D--Phe--Pip--Arg--pNA, has an absorption maximum at 315 nm and the molar extinction coefficient of 12500. At 405 nm the absorption of the substrate has almost completely stopped. p-Nitroaniline, split off from the substrate during the enzymatic hydrolysis, has an absorption maximum at 380 nm and a molar extinction coefficient of 13200 which at 405 nm only had decreased to 9620. By spectrophotometrical determination at 405 nm it is thus possible to easily follow the amount of p-nitroaniline formed, which is proportional to the degree of the enzymatic hydrolysis which in its turn is determined by the active amount of thrombin. For other substrates according to the invention rather identical conditions exist and for this reason the determinations have consistently been made at 405 nm.
They react 4 times more rapidly with thrombin than the previously best substrate, S-2160, and are further about 10 times more soluble in water than S-2160.
Relative reactions velocity between thrombin (0.4 NIH/ml) and substrate (0.1 μmol/ml).

Solubility in water = type: physicochemical
[1] = water, Table I, in H2O, read-out: Solubility in H2O

N=C(N)NCCC[C@H](NC(=O)[C@@H]1CCCCN1C(=O)[C@@H](N)Cc1ccccc1)C(=O)Nc1ccc([N+](=O)[O-])cc1 [XI, H--Phe--Pip--Arg--pNA.2HCl]
Rel. reaction velocity (thrombin): 9
solubility (Solubility in water; [1]): 1000 µg/mL

CC(C)[C@H](NC(=O)[C@@H](N)Cc1ccccc1)C(=O)N[C@@H](CCCNC(=N)N)C(=O)Nc1ccc([N+](=O)[O-])cc1 [B, H-Phe-Val-Arg-pNA, reference compound] (H-Phe-Val-Arg-pNA)
Rel. reaction velocity (thrombin): 3
decrease of the velocity with which thrombin splits the substrate (thrombin; versus S-2160 (benzoyl replaced with H)): about 30 times
solubility (Solubility in water; [1]): 1000 µg/mL (≈ 1850 µM)

CC(C)[C@H](NC(=O)[C@H](Cc1ccccc1)NC(=O)c1ccccc1)C(=O)N[C@@H](CCCNC(=N)N)C(=O)Nc1ccc([N+](=O)[O-])cc1 [Example S-2160, Bz-Phe-Val-Arg-pNA, reference compound] (Bz-Phe-Val-Arg-pNA)
Rel. reaction velocity (thrombin): 100
solubility (Solubility in water; medium not stated, read-out: solubility): 1000 µg/mL (≈ 1550 µM)
solubility compared with S-2160 (in words) (Solubility in water; versus S-2160): considerably more soluble
solubility (Solubility in water; [1]): 100 µg/mL (≈ 155 µM)

N=C(N)NCCC[C@H](NC(=O)[C@@H]1CCCN1C(=O)[C@H](N)Cc1ccccc1)C(=O)Nc1ccc([N+](=O)[O-])cc1 [VIII, H--D--Phe--Pro--Arg--pNA.2HCl]
Rel. reaction velocity (thrombin): 400
solubility (Solubility in water; [1]): 3000 µg/mL

N=C(N)NCCC[C@H](NC(=O)[C@@H]1CCCCN1C(=O)[C@H](N)Cc1ccccc1)C(=O)Nc1ccc([N+](=O)[O-])cc1 [Example X, H--D--Phe--Pip--Arg--pNA.2HCl]
Rel. reaction velocity (thrombin): 420
solubility (Solubility in water; [1]): 3000 µg/mL

N=C(N)NCCC[C@H](NC(=O)[C@@H]1CCCN1C(=O)[C@@H](N)Cc1ccccc1)C(=O)Nc1ccc([N+](=O)[O-])cc1 [IX, H--Phe--Pro--Arg--pNA.2HCl]
Rel. reaction velocity (thrombin): 15
solubility (Solubility in water; [1]): 1000 µg/mL
